In US6544990B2, “Substituted quinolinecarboxamides as antiviral agents” (Pharmacia & Upjohn Company, priority 2001, dated 2003):

Tests used:
[1] = molecular target: T1, HCMV polymerase (Human cytomegalovirus, UniProt P08546); experiment: HCMV polymerase scintillation proximity assay (SPA); format: biochemical; settings: CMV polymerase
T1 construct: made in house; host or cells: recombinant baculovirus-infected SF-9 cells
Experimental: The HCMV polymerase assay is performed using a scintillation proximity assay (SPA) as described in several references, such as N. D. Cook, et al., Pharmaceutical Manufacturing International, pages 49-53 (1992); K. Takeuchi, Laboratory Practice, September issue (1992); U.S. Pat. No. 4,568,649 (1986); which are incorporated by reference herein. Reactions are performed in 96-well plates. The assay is conducted in 100 μl volume with 5.4 mM HEPES (pH 7.5), 11.7 mM KCl, 4.5 mM MgCl2, 0.36 mg/ml BSA, and 90 nM 3H-dTTP. Assays are run with and without CHAPS, (3-[(3-Cholamidopropyl)-dimethylammonio]-1-propane-sulfonate) at a final concentration of 2 mM. HCMV polymerase is diluted in enzyme dilution buffer containing 50% glycerol, 250 mM NaCl, 10 mM HEPES (pH 7.5), 100 μg/ml BSA, and 0.01% sodium azide. The HCMV polymerase, which is expressed in recombinant baculovirus-infected SF-9 cells and purified according to literature procedures, is added at 10% (or 10 μl ) of the final reaction volume, i.e., 100 μl. Compounds are diluted in 50% DMSO and 10 μl are added to each well. Control wells contain an equivalent concentration of DMSO. Unless noted otherwise, reactions are initiated via the addition of 6 nM biotinylated poly(dA)-oligo(dT) template/primer to reaction mixtures containing the enzyme, substrate, and compounds of interest. Plates are incubated in a 25 C or 37 C H20 bath and terminated via the addition of 40 μl/reaction of 0.5 M EDTA (pH 8) per well. Reactions are terminated within the time-frame during which substrate incorporation is linear and varied depending upon the enzyme and conditions used, i.e., 30 min. for HCMV polymerase. Ten μl of streptavidin-SPA beads (20 mg/mil in PBS/10% glycerol) are added following termination of the reaction. Plates are incubated 10 min. at 37 C, then equilibrated to room temperature, and counted on a Packard Topcount. Linear regressions are performed and IC50's are calculated using computer software.
A modified version of the above HCMV polymerase assay is performed as described above, but with the following changes: Compounds are diluted in 100% DMSO until final dilution into assay buffer. In the previous assay, compounds are diluted in 50% DMSO. 4.5 mM dithiotherotol (DTT) is added to the polymerase buffer.

[2] = molecular target: HSV polymerase (Human herpesvirus 1, UniProt P04293); experiment: Polymerase scintillation proximity assay (SPA), HSV; format: biochemical
Chain of HSV polymerase (P04293 whole entry): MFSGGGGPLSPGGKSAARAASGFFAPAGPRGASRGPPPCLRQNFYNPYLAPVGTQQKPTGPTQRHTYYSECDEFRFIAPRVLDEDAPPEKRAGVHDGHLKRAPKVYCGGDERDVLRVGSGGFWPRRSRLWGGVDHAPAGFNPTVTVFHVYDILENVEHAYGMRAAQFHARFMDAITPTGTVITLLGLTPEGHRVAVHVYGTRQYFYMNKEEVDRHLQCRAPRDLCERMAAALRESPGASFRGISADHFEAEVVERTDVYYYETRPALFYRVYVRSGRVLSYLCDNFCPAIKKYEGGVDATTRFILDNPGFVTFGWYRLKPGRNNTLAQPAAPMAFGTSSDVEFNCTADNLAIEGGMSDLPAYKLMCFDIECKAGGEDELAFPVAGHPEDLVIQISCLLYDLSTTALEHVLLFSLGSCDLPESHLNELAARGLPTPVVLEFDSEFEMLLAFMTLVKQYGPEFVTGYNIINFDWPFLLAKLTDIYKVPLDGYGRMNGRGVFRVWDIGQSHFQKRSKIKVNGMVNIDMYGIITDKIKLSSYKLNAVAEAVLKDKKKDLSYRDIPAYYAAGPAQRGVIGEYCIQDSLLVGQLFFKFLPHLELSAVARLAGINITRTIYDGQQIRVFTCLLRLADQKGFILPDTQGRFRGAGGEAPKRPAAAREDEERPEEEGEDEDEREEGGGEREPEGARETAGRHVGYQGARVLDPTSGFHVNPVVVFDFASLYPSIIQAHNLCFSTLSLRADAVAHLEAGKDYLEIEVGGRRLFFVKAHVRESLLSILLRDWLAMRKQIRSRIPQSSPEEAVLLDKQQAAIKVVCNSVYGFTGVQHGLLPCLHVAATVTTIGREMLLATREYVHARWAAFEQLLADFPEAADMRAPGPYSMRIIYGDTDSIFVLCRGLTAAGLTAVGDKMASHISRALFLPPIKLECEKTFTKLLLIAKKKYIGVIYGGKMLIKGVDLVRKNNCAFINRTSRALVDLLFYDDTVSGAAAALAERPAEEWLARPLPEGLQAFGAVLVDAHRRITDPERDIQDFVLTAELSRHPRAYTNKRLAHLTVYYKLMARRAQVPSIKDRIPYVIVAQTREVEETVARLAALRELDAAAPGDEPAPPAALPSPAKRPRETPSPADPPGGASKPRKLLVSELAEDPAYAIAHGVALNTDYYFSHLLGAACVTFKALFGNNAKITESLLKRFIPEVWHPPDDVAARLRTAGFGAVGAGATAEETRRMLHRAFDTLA

[3] = molecular target: VZV polymerase (Varicella-zoster virus, UniProt P09252); experiment: Polymerase scintillation proximity assay (SPA), VZV; format: biochemical
Chain of VZV polymerase (P09252 whole entry): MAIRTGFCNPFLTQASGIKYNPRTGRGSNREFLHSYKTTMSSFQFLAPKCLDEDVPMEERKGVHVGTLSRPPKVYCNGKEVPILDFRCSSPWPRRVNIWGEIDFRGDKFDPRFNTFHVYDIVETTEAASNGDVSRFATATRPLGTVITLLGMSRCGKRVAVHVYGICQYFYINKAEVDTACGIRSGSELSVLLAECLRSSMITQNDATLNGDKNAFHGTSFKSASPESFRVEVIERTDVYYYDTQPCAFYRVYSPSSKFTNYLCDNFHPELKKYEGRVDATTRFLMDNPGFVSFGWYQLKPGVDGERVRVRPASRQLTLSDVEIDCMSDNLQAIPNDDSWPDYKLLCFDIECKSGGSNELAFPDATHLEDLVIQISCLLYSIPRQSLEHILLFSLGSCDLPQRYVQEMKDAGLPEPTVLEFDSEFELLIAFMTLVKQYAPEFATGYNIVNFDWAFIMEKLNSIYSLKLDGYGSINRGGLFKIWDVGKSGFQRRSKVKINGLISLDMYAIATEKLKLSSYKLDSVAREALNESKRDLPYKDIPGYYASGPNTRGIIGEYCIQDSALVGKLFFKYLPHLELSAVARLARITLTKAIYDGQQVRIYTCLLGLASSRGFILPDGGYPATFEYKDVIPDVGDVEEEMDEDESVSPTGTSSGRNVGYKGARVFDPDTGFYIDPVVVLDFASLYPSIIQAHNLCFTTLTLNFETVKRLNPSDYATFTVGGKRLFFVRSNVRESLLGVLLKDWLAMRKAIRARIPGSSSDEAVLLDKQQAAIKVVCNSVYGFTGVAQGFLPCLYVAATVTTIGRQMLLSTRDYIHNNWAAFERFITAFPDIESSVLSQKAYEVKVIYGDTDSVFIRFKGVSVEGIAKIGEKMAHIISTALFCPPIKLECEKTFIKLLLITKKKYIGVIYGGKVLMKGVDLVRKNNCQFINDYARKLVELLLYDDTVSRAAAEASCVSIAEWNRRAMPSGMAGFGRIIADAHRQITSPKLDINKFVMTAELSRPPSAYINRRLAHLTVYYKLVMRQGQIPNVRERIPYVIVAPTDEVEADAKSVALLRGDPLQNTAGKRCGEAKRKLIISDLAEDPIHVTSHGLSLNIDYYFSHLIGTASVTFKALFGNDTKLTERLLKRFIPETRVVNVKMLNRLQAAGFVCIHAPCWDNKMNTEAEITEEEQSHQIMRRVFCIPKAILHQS

T1 sequence (P08546 whole entry): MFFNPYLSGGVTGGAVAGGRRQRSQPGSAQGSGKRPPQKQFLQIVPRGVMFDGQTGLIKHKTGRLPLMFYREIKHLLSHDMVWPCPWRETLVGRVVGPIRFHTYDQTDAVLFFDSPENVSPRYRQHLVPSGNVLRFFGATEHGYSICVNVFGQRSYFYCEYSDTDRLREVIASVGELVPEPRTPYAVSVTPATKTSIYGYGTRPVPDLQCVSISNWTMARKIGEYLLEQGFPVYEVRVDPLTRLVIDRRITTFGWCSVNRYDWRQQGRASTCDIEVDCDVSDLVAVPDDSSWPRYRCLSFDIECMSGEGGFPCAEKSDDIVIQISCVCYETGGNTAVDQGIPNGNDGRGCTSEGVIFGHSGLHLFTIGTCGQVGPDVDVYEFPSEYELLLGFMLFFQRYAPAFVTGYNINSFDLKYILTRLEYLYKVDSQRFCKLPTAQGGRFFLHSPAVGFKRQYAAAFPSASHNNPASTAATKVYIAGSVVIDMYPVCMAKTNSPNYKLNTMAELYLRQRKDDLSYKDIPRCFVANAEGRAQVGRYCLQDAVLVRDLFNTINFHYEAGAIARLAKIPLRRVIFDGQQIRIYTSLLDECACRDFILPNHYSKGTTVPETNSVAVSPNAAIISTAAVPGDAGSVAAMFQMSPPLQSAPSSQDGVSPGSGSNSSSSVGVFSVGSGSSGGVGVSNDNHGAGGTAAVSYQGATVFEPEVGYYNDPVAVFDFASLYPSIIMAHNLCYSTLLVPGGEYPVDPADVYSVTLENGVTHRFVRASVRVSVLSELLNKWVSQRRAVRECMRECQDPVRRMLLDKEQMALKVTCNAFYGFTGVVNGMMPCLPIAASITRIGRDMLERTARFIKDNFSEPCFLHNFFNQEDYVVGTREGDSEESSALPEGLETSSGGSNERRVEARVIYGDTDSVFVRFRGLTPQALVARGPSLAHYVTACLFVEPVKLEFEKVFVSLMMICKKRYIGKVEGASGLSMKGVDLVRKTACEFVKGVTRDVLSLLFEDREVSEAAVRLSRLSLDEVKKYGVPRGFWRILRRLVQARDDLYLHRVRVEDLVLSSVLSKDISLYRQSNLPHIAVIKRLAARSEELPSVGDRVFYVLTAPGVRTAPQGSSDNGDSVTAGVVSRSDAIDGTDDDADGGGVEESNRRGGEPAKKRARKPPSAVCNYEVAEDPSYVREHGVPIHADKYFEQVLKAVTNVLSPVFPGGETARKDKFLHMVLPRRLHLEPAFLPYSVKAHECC

Which IC50 [1] does the source give for `Cn1cc(C(=O)NCc2ccc(Cl)cc2)c(=O)c2cc(CC3CCOCC3)cc(C#CCO)c21` [Example 1, N-(4-chlorobenzyl)-8-(3-hydroxy-1-propynyl)-1-methyl-4-oxo-6-(tetrahydro-2H-pyran-4-ylmethyl)-1,4-dihydro-3-quinolinecarboxamide] here?
The IC50 was 0.32 µM.

And the IC50 [2]?
Its IC50 is 0.25 µM.

And the IC50 [3]?
The IC50 was 0.18 µM.

What about the melting point of the same compound?
The melting point was 166 to 168 °C.

With `Cn1cc(C(=O)NCc2ccc(Cl)cc2)c(=O)c2cc(CC3CCOCC3)cc(C#CCCO)c21` [Example 2, N-(4-chlorobenzyl)-8-(4-hydroxy-1-butynyl)-1-methyl-4-oxo-6-(tetrahydro-2H-pyran-4-ylmethyl)-1,4-dihydro-3-quinolinecarboxamide] as the compound, how does the IC50 [1] read?
Its IC50 is 0.32 µM.

What about the melting point of the same compound?
The melting point was 186 to 188 °C.

With `CN(C)CC#Cc1cc(CC2CCOCC2)cc2c(=O)c(C(=O)NCc3ccc(Cl)cc3)cn(C)c12` [Example 3, N-(4-chlorobenzyl)-8-[3-(dimethylamino)-1-propynyl]-1-methyl-4-oxo-6-(tetrahydro-2H-pyran-4-ylmethyl)-1,4-dihydro-3-quinolinecarboxamide] as the compound, how does the IC50 [1] read?
The IC50 was 0.87 µM.

And the melting point?
Its melting point is 157 to 159 °C.

With `Cn1cc(C(=O)NCc2ccc(Cl)cc2)c(=O)c2cc(CN3CCOCC3)cc(C#CCO)c21` [Example 4, N-(4-chlorobenzyl)-8-(3-hydroxy-1-propynyl)-1-methyl-6-(4-morpholinylmethyl)-4-oxo-1,4-dihydro-3-quinolinecarboxamide] as the compound, how does the IC50 [1] read?
Its IC50 is 0.83 µM.

And the IC50 [2]?
The IC50 was 0.83 µM.

And the IC50 [3]?
The IC50 was 0.36 µM.

And the melting point?
Its melting point is 180 to 183 °C.

What does the source list for `CN(C)CC#Cc1cc(CN2CCOCC2)cc2c(=O)c(C(=O)NCc3ccc(Cl)cc3)cn(C)c12` [Example 5, N-(4-chlorobenzyl)-8-[3-(dimethylamino)-1-propynyl]-1-methyl-6-(4-morpholinylmethyl)-4-oxo-1,4-dihydro-3-quinolinecarboxamide]?
IC50 [1]: 1.6 µM; melting point: 154 to 157 °C

With `Cn1cc(C(=O)NCc2ccc(Cl)cc2)c(=O)c2cc(CN3CCOCC3)cc(C#CCCO)c21` [Example 6, N-(4-chlorobenzyl)-8-(4-hydroxy-1-butynyl)-1-methyl-6-(4-morpholinylmethyl)-4-oxo-1,4-dihydro-3-quinolinecarboxamide] as the compound, how does the IC50 [1] read?
Its IC50 is 0.8 µM.

And the IC50 [2]?
Its IC50 is 0.82 µM.

What about the IC50 [3] of the same compound?
The IC50 was 0.36 µM.

What about the melting point of the same compound?
Its melting point is 168 to 170 °C.

For `Cn1cc(C(=O)NCc2ccc(Cl)cc2)c(=O)c2cc(CN3CCOCC3)cc(C#CCC[C@@H]3COC(=O)N3)c21` [Example 9, N-(4-chlorobenzyl)-1-methyl-6-(4-morpholinylmethyl)-4-oxo-8-{4-[(4R)-2-oxo-1,3-oxazolidin-4-yl]-1-butynyl}-1,4-dihydro-3-quinolinecarboxamide], which IC50 [1] is on record?
Its IC50 is 0.55 µM.

What about the melting point of the same compound?
Its melting point is 171 to 173 °C.

Which IC50 [1] does the source give for `Cn1cc(C(=O)NCc2ccc(Cl)cc2)c(=O)c2cc(CN3CCOCC3)cc(C#CCF)c21` [Example 12, N-(4-chlorobenzyl)-8-(3-fluoroprop-1-ynyl)-1-methyl-6-(morpholin-4-ylmethyl)-4-oxo-1,4-dihydroquinoline-3-carboxamide] here?
Its IC50 is 0.77 µM.

And the melting point?
The melting point was 189 to 191 °C.

With `Cc1cncn1CC#Cc1cc(CN2CCOCC2)cc2c(=O)c(C(=O)NCc3ccc(Cl)cc3)cn(C)c12` [Example 14, N-(4-chlorobenzyl)-1-methyl-8-[3-(5-methyl-1H-imidazol-1-yl)prop-1-ynyl]-6-(morpholin-4-ylmethyl)-4-oxo-1,4-dihydroquinoline-3-carboxamide] as the compound, how does the IC50 [1] read?
Its IC50 is 0.52 µM.

For `CC(O)CC#Cc1cc(CN2CCOCC2)cc2c(=O)c(C(=O)NCc3ccc(Cl)cc3)cn(C)c12` (centres unmarked) [Example 18, N-(4-chlorobenzyl)-8-(4-hydroxypent-1-ynyl)-1-methyl-6-(morpholin-4-ylmethyl)-4-oxo-1,4-dihydroquinoline-3-carboxamide], which IC50 [1] is on record?
Its IC50 is 0.61 µM.

And the melting point?
Its melting point is 178 to 180 °C.

What does the source list for `Cn1cc(C(=O)NCc2ccc(Cl)cc2)c(=O)c2cc(CN3CCOCC3)cc(C#CCN3CCC(O)CC3)c21` [Example 19, N-(4-chlorobenzyl)-8-[3-(4-hydroxypiperidin-1-yl)prop-1-ynyl]-1-methyl-6-(morpholin-4-ylmethyl)-4-oxo-1,4-dihydroquinoline-3-carboxamide]?
IC50 [1]: 1.01 µM; melting point: 180 to 183 °C

With `Cn1cc(C(=O)NCc2ccc(Cl)cc2)c(=O)c2cc(CN3CCOCC3)cc(C#CCN3CCC(O)C3)c21` (centres unmarked) [Example 20, N-(4-chlorobenzyl)-8-[3-(3-hydroxypyrrolidin-1-yl)prop-1-ynyl]-1-methyl-6-(morpholin-4-ylmethyl)-4-oxo-1,4-dihydroquinoline-3-carboxamide] as the compound, how does the IC50 [1] read?
The IC50 was 1.02 µM.

And the melting point?
The melting point was 144 to 146 °C.

Which results are given for `CN(CC#Cc1cc(CN2CCOCC2)cc2c(=O)c(C(=O)NCc3ccc(Cl)cc3)cn(C)c12)CC(O)CO` (centres unmarked) [Example 21, N-(4-chlorobenzyl)-8-{3-[(2,3-dihydroxypropyl)(methyl)amino]prop-1-ynyl}-1-methyl-6-(morpholin-4-ylmethyl)-4-oxo-1,4-dihydroquinoline-3-carboxamide]?
IC50 [1]: 0.8 µM; melting point: 140 to 142 °C

With `CN(CC#Cc1cc(CN2CCOCC2)cc2c(=O)c(C(=O)NCc3ccc(Cl)cc3)cn(C)c12)CCO` [Example 22, N-(4-chlorobenzyl)-8-{3-[(2-hydroxyethyl)(methyl)amino]prop-1-ynyl}-1-methyl-6-(morpholin-4-ylmethyl)-4-oxo-1,4-dihydroquinoline-3-carboxamide] as the compound, how does the IC50 [1] read?
The IC50 was 0.82 µM.

And the melting point?
Its melting point is 148 to 149 °C.

For `Cn1cc(C(=O)NCc2ccc(Cl)cc2)c(=O)c2cc(CN3CCOCC3)cc(C#CCC(CO)CO)c21` [Example 24, N-(4-chlorobenzyl)-8-[5-hydroxy-4-(hydroxymethyl)pent-1-ynyl]-1-methyl-6-(morpholin-4-ylmethyl)-4-oxo-1,4-dihydroquinoline-3-carboxamide], which IC50 [1] is on record?
The IC50 was 0.56 µM.

What about the melting point of the same compound?
The melting point was 190 to 193 °C.

Which IC50 [1] does the source give for `Cn1cc(C(=O)NCc2ccc(Cl)cc2)c(=O)c2cc(CN3CCOCC3)cc(C#CCN3CCCC(CO)C3)c21` (centres unmarked) [Example 25, N-(4-chlorobenzyl)-8-{3-[3-(hydroxymethyl)piperidin-1-yl]prop-1-ynyl}-1-methyl-6-(morpholin-4-ylmethyl)-4-oxo-1,4-dihydroquinoline-3-carboxamide] here?
Its IC50 is 0.74 µM.

With `Cn1cc(C(=O)NCc2ccc(Cl)cc2)c(=O)c2cc(CN3CCOCC3)cc(C#CCN3CCN(CCO)CC3)c21` [Example 26, N-(4-chlorobenzyl)-8-{3-[4-(2-hydroxyethyl)piperazin-1-yl]prop-1-ynyl}-1-methyl-6-(morpholin-4-ylmethyl)-4-oxo-1,4-dihydroquinoline-3-carboxamide] as the compound, how does the IC50 [1] read?
Its IC50 is 1.29 µM.

With `Cn1cc(C(=O)NCc2ccc(Cl)cc2)c(=O)c2cc(CN3CCOCC3)cc(C#CCN3CCC[C@H]3CO)c21` [Example 27, N-(4-chlorobenzyl)-8-{3-[(2S)-2-(hydroxymethyl)pyrrolidin-1-yl]prop-1-ynyl}-1-methyl-6-(morpholin-4-ylmethyl)-4-oxo-1,4-dihydroquinoline-3-carboxamide] as the compound, how does the IC50 [1] read?
Its IC50 is 0.94 µM.

Which IC50 [1] does the source give for `Cn1cc(C(=O)NCc2ccc(Cl)cc2)c(=O)c2cc(CN3CCOCC3)cc(C#CCN3CCCC(O)C3)c21` (centres unmarked) [Example 28, N-(4-chlorobenzyl)-8-[3-(3-hydroxypiperidin-1-yl)prop-1-ynyl]-1-methyl-6-(morpholin-4-ylmethyl)-4-oxo-1,4-dihydroquinoline-3-carboxamide] here?
Its IC50 is 0.82 µM.

For `Cn1cc(C(=O)NCc2ccc(Cl)cc2)c(=O)c2cc(CN3CCOCC3)cc(C#CCN3CCC[C@@H]3CO)c21` [Example 29, N-(4-chlorobenzyl)-8-{3-[(2R)-2-(hydroxymethyl)pyrrolidin-1-yl]prop-1-ynyl}-1-methyl-6-(morpholin-4-ylmethyl)-4-oxo-1,4-dihydroquinoline-3-carboxamide], which IC50 [1] is on record?
The IC50 was 0.73 µM.

For `Cn1cc(C(=O)NCc2ccc(Cl)cc2)c(=O)c2cc(CN3CCOCC3)cc(C#CCN3CCCCC3CCO)c21` (centres unmarked) [Example 30, N-(4-chlorobenzyl)-8-{3-[2-(2-hydroxyethyl)piperidin-1-yl]prop-1-ynyl}-1-methyl-6-(morpholin-4-ylmethyl)-4-oxo-1,4-dihydroquinoline-3-carboxamide], which IC50 [1] is on record?
The IC50 was 0.71 µM.

For `CCCCN(CC#Cc1cc(CN2CCOCC2)cc2c(=O)c(C(=O)NCc3ccc(Cl)cc3)cn(C)c12)CCO` [Example 31, 8-{3-[butyl(2-hydroxyethyl)amino]prop-1-ynyl}-N-(4-chlorobenzyl)-1-methyl-6-(morpholin-4-ylmethyl)-4-oxo-1,4-dihydroquinoline-3-carboxamide], which IC50 [1] is on record?
Its IC50 is 0.49 µM.

And the IC50 [2]?
Its IC50 is 0.55 µM.

What about the IC50 [3] of the same compound?
The IC50 was 0.33 µM.
